Data as given in patent US20240383899A1, “MODIFIED CARBAPENEM ANTIBIOTICS WITH IMPROVED ACTIVITY AGAINST KPC CARBAPENEMASE-PRODUCING ENTEROBACTERALES” (priority 2023, published 2024).
In brackets after ≈: the same amount, converted by molar mass. Where two headings read alike, the source gives them in different places.

What was measured:
Assay in all cases: In vitro activity (MIC) against Gram-negative aerobic bacteria
Type in all cases: cell-based
[1] = test system: Klebsiella pneumoniae MMX 4683 (CDC ART2008030); ESBL, KPC-2
[2] = test system: Serratia marcescens MMX 6462
[3] = test system: Enterobacter cloacae MMX 6089
[4] = test system: Klebsiella pneumoniae MMX 6854; ESBL
[5] = test system: Proteus mirabilis MMX 6442
[6] = test system: Citrobacter freundii MMX 6284
[7] = test system: Acinetobacter baumannii MMX 2599
[8] = test system: Acinetobacter baumannii ATCC 19606
[9] = test system: Klebsiella pneumoniae MMX 4885; KPC
[10] = test system: Acinetobacter baumannii MMX 2587; MDR

Row | MIC ([1]; read-out: MIC) | MIC ([2]; MMX6462, read-out: MIC) | MIC ([3]; MMX6089, read-out: MIC) | MIC ([4]; read-out: MIC) | MIC ([5]; MMX6442, read-out: MIC) | MIC ([6]; MMX6284, read-out: MIC) | MIC ([7]; MMX2599, read-out: MIC) | MIC ([8]; ATCC19606, read-out: MIC) | MIC ([9]; read-out: MIC) | MIC ([10]; read-out: MIC) | Compound | MIC [1] | MIC [2] | MIC [3] | MIC [4] | MIC [5] | MIC [6] | MIC [7] | MIC [8] | MIC [9] | MIC [10]
1 | > 32 µg/mL | 0.25 µg/mL (≈ 0.457 µM) | 32 µg/mL (≈ 58.5 µM) | 0.5 µg/mL (≈ 0.915 µM) | ≤ 0.03 µg/mL | > 32 µg/mL | 8 µg/mL (≈ 14.6 µM) | 8 µg/mL (≈ 14.6 µM) | > 32 µg/mL | > 32 µg/mL | CC(C)(O/N=C(\C(=O)N[C@@H]1C(=O)N2C(C(=O)[O-])=C(C[n+]3ccccc3)CS[C@H]12)c1csc(N)n1)C(=O)O [CAZ, ceftazidime] | – | – | – | – | – | – | – | – | – | –
2 | – | – | – | – | – | – | – | – | – | – | colistin | 0.12 µg/mL | >32 µg/mL | 0.12 µg/mL | 0.25 µg/mL | >32 µg/mL | 0.12 µg/mL | 2 µg/mL | 0.5 µg/mL | 8 µg/mL | 1 µg/mL
3 | > 32 µg/mL | > 32 µg/mL | > 32 µg/mL | > 32 µg/mL | > 32 µg/mL | > 32 µg/mL | > 32 µg/mL | > 32 µg/mL | > 32 µg/mL | > 32 µg/mL | Cc1ncc([N+](=O)[O-])n1CCO [MET, metronidazole] | – | – | – | – | – | – | – | – | – | –
4 | > 8 µg/mL | 0.25 µg/mL (≈ 0.652 µM) | 0.06 µg/mL (≈ 0.156 µM) | 0.25 µg/mL (≈ 0.652 µM) | 0.12 µg/mL (≈ 0.313 µM) | > 8 µg/mL | 0.25 µg/mL (≈ 0.652 µM) | 2 µg/mL (≈ 5.22 µM) | > 8 µg/mL | > 8 µg/mL | C[C@@H](O)[C@H]1C(=O)N2C(C(=O)O)=C(S[C@@H]3CN[C@H](C(=O)N(C)C)C3)[C@H](C)[C@H]12 [MEM, meropenem] | – | – | – | – | – | – | – | – | – | –
5 | > 4 µg/mL | 0.12 µg/mL (≈ 0.299 µM) | 0.03 µg/mL (≈ 0.0747 µM) | 0.5 µg/mL (≈ 1.25 µM) | 0.25 µg/mL (≈ 0.623 µM) | > 4 µg/mL | 0.12 µg/mL (≈ 0.299 µM) | 0.25 µg/mL (≈ 0.623 µM) | > 4 µg/mL | > 4 µg/mL | COc1c(N2C[C@@H]3CCCN[C@@H]3C2)c(F)cc2c(=O)c(C(=O)O)cn(C3CC3)c12 [MOX, moxifloxacin] | – | – | – | – | – | – | – | – | – | –

Row | Compound | MIC ([1]; read-out: MIC) | MIC ([2]; MMX6462, read-out: MIC) | MIC ([3]; MMX6089, read-out: MIC) | MIC ([4]; read-out: MIC) | MIC ([5]; MMX6442, read-out: MIC) | MIC ([6]; MMX6284, read-out: MIC) | MIC ([7]; MMX2599, read-out: MIC) | MIC ([8]; ATCC19606, read-out: MIC) | MIC ([9]; read-out: MIC) | MIC ([10]; read-out: MIC) | MIC [1] | MIC [2] | MIC [3] | MIC [4] | MIC [5] | MIC [6] | MIC [7] | MIC [8] | MIC [9] | MIC [10]
6 | C[C@H](O)[C@H]1C(=O)N2C(C(=O)O)=C(S[C@@H]3CN[C@H](C(=O)N(C)C)C3)[C@H](C)[C@H]12 [JDB-1-200, (4R,5S,6S)-3-(((3S,5S)-5-(dimethylcarbamoyl)pyrrolidin-1-ium-3-yl)thio)-6-((S)-1-hydroxyethyl)-4-methyl-7-oxo-1-azabicyclo[3.2.0]hept-2-ene-2-carboxylate] | 1 µg/mL (≈ 2.61 µM) | 0.5 µg/mL (≈ 1.3 µM) | 0.12 µg/mL (≈ 0.313 µM) | 0.5 µg/mL (≈ 1.3 µM) | 1 µg/mL (≈ 2.61 µM) | 1 µg/mL (≈ 2.61 µM) | 0.12 µg/mL (≈ 0.313 µM) | 0.5 µg/mL (≈ 1.3 µM) | 0.5 µg/mL (≈ 1.3 µM) | 32 µg/mL (≈ 83.4 µM) | – | – | – | – | – | – | – | – | – | –
7 | CN[C@H](CC(C)C)C(=O)N[C@H]1C(=O)N[C@@H](CC(N)=O)C(=O)N[C@H]2C(=O)N[C@H]3C(=O)N[C@H](C(=O)N[C@H](C(=O)O)c4cc(O)cc(O)c4-c4cc3ccc4O)[C@H](O)c3ccc(c(Cl)c3)Oc3cc2cc(c3O[C@@H]2O[C@H](CO)[C@@H](O)[C@H](O)[C@H]2O[C@H]2C[C@](C)(N)[C@H](O)[C@H](C)O2)Oc2ccc(cc2Cl)[C@H]1O [VAN, vancomycin] | > 32 µg/mL | > 32 µg/mL | > 32 µg/mL | > 32 µg/mL | > 32 µg/mL | > 32 µg/mL | > 32 µg/mL | > 32 µg/mL | > 32 µg/mL | > 32 µg/mL | – | – | – | – | – | – | – | – | – | –
